Measured values published in a melting point compilation (Tetko et al.; mined from patent text by program, amines drawn as free bases though some values may be those of a salt).

melting point [°C] | Structure (SMILES)
194 to 196 | CS(=O)(=O)Nn1c(=O)[nH]c2cc(C(F)(F)F)c(Oc3cccnc3)cc2c1=O
188 to 190 | COc1ccc(N2CCN(c3c(C)c(C)c4c(c3C)C(N3CCCc5ccccc53)C(C)(C)O4)CC2)cc1 (stereo unspecified)
185 to 189 | Nc1ncc(CCN2CCN(c3ccccc3)CC2)s1
107 to 108 | N#CCNC(=O)COc1ccc(Cl)cc1Cl
163 to 165 | O=Cc1coc2cc(OCCCN3CCC(c4noc5cc(F)ccc45)CC3)ccc2c1=O
176 to 181 | O=C(CCc1ccncc1)Nc1cccc(-c2ccnc3c(C(=O)c4cccs4)cnn23)c1
237 to 238 | O=C(NCc1ccccn1)Nc1cc(-n2c(=O)oc3ccccc32)ccn1
142 | Cc1cccc(NC(=O)NCC(=O)N(CC(=O)OC(C)(C)C)c2ccc3c(c2)OCO3)c1
162 to 163 | CCOC(=O)c1c(COC(C)=O)cccc1S(=O)(=O)NC(=O)Nc1nc(OC)cc(OC)n1
278 to 279 | CCc1nc2c([nH]1)C(=O)N1CCN=C1N2Cc1ccc(Cl)cc1
240 to 242 | CC(C)n1nc(-c2nc(-c3nc(-c4ccccc4)cs3)c(N)nc2-c2ccccc2)ccc1=O
82 to 83 | CC(C)Oc1c(C(=O)Nc2ccccc2)oc2ccc(Cl)cc12
178 to 180 | COc1ccc2c(-c3ccc(C#Cc4ccccc4)cc3)cc(=O)oc2c1
245 to 248 | CS(=O)(=O)N1CCN(c2n[nH]c(-c3ccc(Cl)cc3)c2-c2ccncc2)CC1
142 to 143 | CNC(=O)c1cccc(NC(=O)CCc2ccccc2)c1
232 to 234 | Cn1ccnc1CNC(=O)c1[nH]c2ccc(Cl)cc2c1S(=O)(=O)c1cccc(Cl)c1
120 | CCOC(=O)CC1(c2ccccc2)CCN(C(c2ccccc2)(c2ccccc2)c2ccccc2)CC1
52 to 56 | CC(C)(C)OC(=O)N1[C@@H](CC2CCCCC2)[C@H](c2ccco2)OC1(C)C
91 to 92 | C#CCN(Cc1ccccc1)S(=O)(=O)c1ccc([N+](=O)[O-])cc1[N+](=O)[O-]
118 to 120 | C/C=C(\C)CNc1cccc(-c2ccnc3c(C(=O)c4cccs4)cnn23)c1
> 300 | O=c1[nH]c2ccccc2n2ccnc12
172 to 175 | O=C(O)c1ccc2cnn(C3CCCC3)c2c1
189 to 191 | O=C(Nc1ccc(F)cc1F)C1c2ccccc2COc2ccc(Br)cc21 (stereo unspecified)
150 | Nc1ccc(C(=O)CCCCl)cc1[N+](=O)[O-]
113 to 115 | CCN(CC)Cc1ccc(N=C2NCCN2)c(Cl)c1

melting point [°C] | Structure (SMILES)
151 to 152 | Cn1c(Cn2ccnc2)nc2ccccc21
173 to 174 | O=Cc1ccc2cc(C=O)ccc2c1
179 | O=c1ncc(Cl)cn1CSc1ccc(F)cc1
118 to 120 | CCC(=NO)C(C)(C)NCC(C)(C)CN
162 to 163 | CC(C)(C)[Si](C)(C)O[C@@H]1c2cc(Br)ccc2-c2ccc(Br)cc2[C@H]1O[Si](C)(C)C(C)(C)C (relative stereo)
169 | CN(C)c1cc2nc(C(C)(C)C)sc2cc1N
131 to 134 | CCCc1c(CSc2nnc(SCc3ccc(OCC(=O)O)cc3)s2)ccc(C(C)=O)c1O
165 to 170 | CC12CCC(OC(=O)c3ccccc3)CC1=CCC1C2CCC2(C)C(=NO)CCC12 (stereo unspecified)
103 to 104 | CCOC(=O)c1nc(-c2ccc(Cl)cc2)c(F)c(N)c1Cl
120 to 122 | CC(O)(c1ccsc1)c1nccs1 (stereo unspecified)
64 to 66 | O=c1nc2n(c(=O)n1CCBr)CCCC2
164 | Nc1nc(N)c(CCCC(CO)c2ccc(C(=O)N[C@@H](CCC(=O)O)C(=O)O)cc2)c(O)n1 (stereo partly specified)
266 to 269 | CCOC(=O)c1cn(CC)c2nc(N3CCC(NC(C)=O)C3)c(F)cc2c1=O (stereo unspecified)
236 to 242 | Cc1cc(C)c(O)c(C(CCCC(c2cc(C)cc(C)c2O)c2cc(C)cc(C)c2O)c2cc(C)cc(C)c2O)c1
233 to 234 | CCNC(=O)c1cccc(F)c1Nc1nc(Cl)ncc1Cl
157 to 159 | COc1ccc2[nH]c(C(=O)C3(c4ccc(Cl)cc4)CCCC3)cc2c1
227 to 229 | CC(C)n1nc(-c2sc(NC(=O)c3ccc4ccccc4c3)nc2-c2ccccc2)ccc1=O
114 to 116 | CC(C)(C)COC(=O)Oc1cc(Cl)nnc1-c1ccc(Br)cc1
83 to 91 | CC(CCc1cc2cccnc2n(-c2cccc(N)c2)c1=O)c1ccncc1 (stereo unspecified)
158 to 168 | CC(C)(C)c1cc(C=C2SC(=S)N(C3CC3)C2=O)cc(C(C)(C)C)c1O
124 to 126 | c1ncc2ncncc2n1
114 to 116 | CNC=C(C(=O)C=Cc1ccc(Cl)cc1)C(=O)OC
78.1 | Cn1cccc1C(=O)NCCO
225 to 227 | CN(C)c1ccc(C(=N)Nc2cccc(NC(=O)C=Cc3ccccc3)c2)cc1
129 to 130 | O=C(OCCc1c(-c2ccccc2)n2nnnc2n2ncnc12)C12CC3CC(CC(C3)C1)C2

melting point [°C] | Structure (SMILES)
164 to 167 | Cc1nc2nsc(N)c2s1
165 to 167 | COC(=O)c1ccc2oc(CCc3cc4cc(C(=O)OC)ccc4o3)cc2c1
211 to 214 | O=C(O)COc1ccc(OCC(=O)O)c(NC(=O)c2ccc(OCCCCc3ccccc3)cc2)c1
230 to 236 | Cn1cc(C(=O)NCc2ccc(Cl)cc2)c(=O)c2cc(CN3CCOCC3)sc21
132 to 133 | CN=c1c2c(C)c(C)n(-c3ccccc3)c2nc(C)n1C
291 to 296 | Cc1nc(N)nc(N)c1-c1ccc(F)cc1F
138 to 140 | CSc1nc(=O)cc(N)n1-c1ccc(Br)cc1
116 to 118 | CC#CC(C)(C)NC(=O)C(CC)Oc1ccc2ncc(C#N)cc2c1 (stereo unspecified)
137 to 140 | COc1ccc(C(CCCCl)=NNC(N)=S)cc1
142 to 146 | CC1(C)COC(c2ccccc2S(N)(=O)=O)=N1
66 to 68 | C#CC1(OC(=O)c2ccccc2)C(COC(=O)c2ccc(Cl)cc2)OC(OC(=O)c2ccccc2)C1OC(=O)c1ccccc1 (stereo unspecified)
165 to 168 | COc1nscc1C(N)=O
202 to 205 | Cc1ccc2c(Cl)ccnc2c1NC(=O)c1c(Cl)cccc1Cl
108 to 110 | CN(C)C1=NC(=O)C(Cc2cccc(-c3ccc(O)c(C4(C)CCCCC4)c3)c2)S1 (stereo unspecified)
247 to 248 | Cc1c(-c2nnn[nH]2)oc2c(c1=O)CSc1ccccc1-2
207 to 210 | COc1cc(C(=O)O)c(-c2c(C(=O)O)ccc3c2OCO3)cc1OC
98 to 100 | CCc1cccc(NC(=O)C(C#N)=C(C)N(C)C)c1
> 330 | COc1ccc2[nH]c3c(c4c(c5c6cc(OC)ccc6n(C)c35)C(=O)N(C)C4=O)c2c1
> 200 | COc1ccc(C(C)(C)C)cc1NC(=O)Nc1ccc(-c2cnc3c(c2)NC(=O)CO3)c2ccccc12
164 | COC(=O)c1cccc(-c2nc(=O)c3ccccc3s2)c1
74 to 75 | C=CCNc1nc(NCC=C)nc(NCCC2CC(C)(C)NC(C)(C)C2)n1
139 | Cn1nc(C(F)(F)F)cc1Oc1cc(C#N)cc(Oc2cc(C(F)(F)F)nn2C)c1
204 to 205 | COC(=O)c1cn(C2CC2)c2nc(C)ccc2c1=O
84 to 88 | CCCCOC(Cc1ccc(OCCN2c3ccccc3Oc3ccccc32)cc1)C(=O)O (stereo unspecified)
99 to 100 | CC(=O)OCc1nn(C(C)=O)c2cccc(OCc3ccccc3)c12

melting point [°C] | Structure (SMILES)
69 to 71 | CC(=Cc1ccc(Oc2ccc(Cl)cc2)cc1)[N+](=O)[O-]
90 to 98 | CCCCC1=NC2(CCCC2)C(=O)N1Cc1ccc(-c2ccccc2S(=O)(=O)Nc2noc(C)c2C)c(CO)c1
144 to 145 | CC(C)c1cc(CCC(=O)NCc2cccc(NC(=N)c3cccs3)c2)cc(C(C)C)c1O
118 to 120 | COc1cc(C)nc(NC(=O)NS(=O)(=O)N(C)S(C)(=O)=O)n1
64 to 66 | O=Cc1ncc(C(O)C(F)(F)F)s1 (stereo unspecified)
91 to 92 | CC(C(=O)c1ccccc1)=C1CCCN1
109 to 110 | COC(=S)Cc1ccc(C(=O)CN2CCN(c3ccncc3)CC2)cc1
108 to 110 | COc1ccc(SCCSc2ccc(OC)cc2)cc1
147 to 148 | CCOC(=O)c1c(C)nc(-c2ccccc2)nc1-c1ccc(OC(C)=O)c([N+](=O)[O-])c1
144 to 145 | CNC(=O)c1ccc2c(c1)OC(c1ccccc1)(c1ccccc1)O2
85.5 | C=C(Cl)CC(C#N)(C#N)Cc1ccc(Cl)cc1
87 to 92 | O=C(Cc1c(F)c(F)nc(F)c1Cl)OCc1ccccc1
62 to 68 | CC(C)(C)c1ccccc1NC(=O)OCC1(COC(=O)Nc2ccccc2C(C)(C)C)CSc2ccccc2C1=O
70 to 73 | COC(=O)c1ccc(C(=O)c2ccccc2)o1
63 to 64 | COc1cc(O)c(C=O)cc1Br
86 to 89 | Cc1cnc(CCCCNc2ncc(Cc3ccc(C)nc3)c(=O)[nH]2)c(N)c1
171 to 172 | O=C(O)C1=CC(CF)(CF)Oc2ccc([N+](=O)[O-])cc21
106 to 107 | N#Cc1cccc(C(Cl)(Cl)Cl)c1Cl
137 to 139 | N#Cc1ccc(CCNC(=O)CC(=O)O)cc1
190 to 191 | COc1cc(N)c(S(C)(=O)=O)cc1C(=O)NCC1CCCN1C (stereo unspecified)
120 to 122 | COc1ccc(-n2nc(N(C)C)cc2-c2ccc(OCCO)cc2)cc1
153 to 154 | C=C(CNNC(=O)OC(C)(C)C)c1ccccc1

Structure (SMILES) | melting point [°C]
O=[N+]([O-])C=Cc1ccc(O)c(Br)c1 | 132 to 134
COC(=O)c1cc(OC(C)=O)c2cc(-c3ccc4c(c3)C(C)(C)CCC4(C)C)ccc2c1C | 170
COC(=O)c1ccc(C2=NOC(c3cc(Cl)cc(Cl)c3)(C(F)(F)F)C2)cc1 (stereo unspecified) | 94 to 96
CCC(O)C#Cc1ncn2c1CN(C)C(=O)c1c(Cl)cccc1-2 (stereo unspecified) | 178
